Patent publication EP2045266A1, “Methods for treating and diagnosing a cancer secreting cath-D or Alzheimer's disease” (INSERM (Institut National de la Santé et de la Recherche …, priority 2007, dated 2009)
Blank lines part the entries; values can stand above or below the compound they belong to. Non-standard residues stand in square brackets, D forms with d. Residues, ends and D or L forms follow the SMILES beside them. *: point of attachment. Sta = CC(C)C[C@H](N)[C@@H](O)CC(=O)O; Isovaleryl = CC(C)CC(=O)*

Key:
pro-cath-D = molecular target: T1, pro-cath-D (Homo sapiens, UniProt P07339); assay: GST pull-down: competition for binding of LRP1β (1-476) to GST-pro-cath-D; settings: radio-labelled LRP1β (1-476), beads with GST-cath-D/52K, increasing concentration of the peptide; Fig. 2C
T1 construct: the 52, 34, 14 and 4 kDa cath-D fragments were expressed as GST fusion proteins; made in house; host or cells: Escherichia coli BL21 (GST fusion)
Experimental: • (A) Schematic representation of GST-LRP1β fragments. Shorter GST-LRP1β fragments (F4, F6-F8) were derived from GST-LRP1β (307-479) (F0). The F4 (349-394) GST-LRP1β fragment was then sub-divided into shorter fragments (F5, F9-13). • (B) Binding of pro-cath-D to GST-LRP1β fragments. Radio-labelled pro-cath-D was incubated with beads containing GST-LRP1β fragments or GST. GST proteins bound to beads were stained by Coomassie (panels a, c) and bound pro-cath-D was detected by autoradiography (panels b, d). • (C) Effect of the (349-397) LRP1 peptide for the binding of the extracellular domain of LRP1β (1-476) to pro-cath-D. Schematic representation and numbering of the EGF-like repeats 16 to 22 present in the extracellular domain of LRP1β is shown in panel a. Radio-labelled extracellular domain of LRP1β (1-476) was incubated with beads containing GST-cath-D/52K in the absence or presence of increasing concentration of the (349-397) LRP1 peptide (panel b). GST proteins stained by Coomassie are shown in left panel and bound LRP1β (1-476) in right panel .
GST pull-down assays. [^35S]methionine-labelled pro-cath-D or LRP1β(1-476) were obtained by transcription and translation of pcDNA3.1(-)cath-D or pcONA3.1(+)LRP1β extracellular domain(1-476) expression plasmids, respectively, using the TNT^T7-coupled reticulocyte lysate system (Promega). […]

[1] = molecular target: auto-activated pro-cath-D (Homo sapiens, UniProt P07339); assay: Cleavage of the LRP1 [349-397] peptide by auto-activated pro-cath-D (HPLC, NH2-terminal sequencing); assay type: biochemical; settings: pro-cath-D 500 ng auto-activated at pH 3.5 for 30 min, 2 h with 50 µM peptide at pH 3.5
Source text: (§1) • (A) Shedding of LRP1 β chain ectodomain. SEAP activity was quantified in the medium of COS cells transiently transfected with SEAP-LRP1β and β-galactosidase vectors in the absence or presence of cath-D vector (panel a). The mean ± SD of 4 independent determinations with both transfections and measurements carried in duplicate is shown *, p<0.0025 versus control (Student's t-test). […] A representative experiment from a transfection performed in duplicate is shown. Similar results were obtained in another independent experiment. • (B) Cleavage of the LRP1 [349-397] peptide by auto-activated pro-cath-D. Pro-cath-D (500 ng), auto-activated at pH 3.5 for 30 min, was incubated for 2 h with 50 µM of LRP1 [349-397] peptide at pH 3.5. Cleaved peptides were resolved by reverse-phase HPLC and subjected to NH2-terminal sequence analysis. Arrows indicate the 3 cleavage sites. • (C) Production of LRP1 β carboxyl-terminal fragment. COS cells, transfected with Myc-LRP1β in the absence or presence of wild-type or D231 N cath-D, were treated with DAPT (1 µM) or DMSO for 24 h. Cells were lysed and the full-length Myc-LRP1β and its carboxy-terminal fragment (LRP1β-CTF) were isolated by immunoprecipitation and visualized by immunoblotting with the monoclonal antibody 11H4. *, p<0.025 versus Luc siRNA HMF cells; **, p<0.0025 versus Luc siRNA HMF cells (Student's t-test).

LRP1β-CTF [2] = assay: Production of LRP1β-CTF and shedding of LRP1β in HMF fibroblasts; assay type: cell-based, human; settings: DAPT 1 µM, 24 h, Fig. 6B panel a
Experimental: (§2) • (A) Pro-cath-D is internalized in part by LRP1. Conditioned media containing labelled pro-cath-D was produced by incubating cath-D expressing 3Y1-Ad12 cells with [S^35]methionine and [S^35]cysteine for 24 h. HMF fibroblasts were transiently transfected with either Luc siRNA or LRP1 siRNA1 and endocytosis of labelled pro-cath-D was performed 48 h post-transfection. For endocytosis, siRNAs-transfected HMF fibroblasts were incubated for 3 h (panel a) or for 18h (panel c) with conditioned medium containing labelled pro-cath-D in the absence or presence of 10 mM M6P. Cell lysates containing endocytosed labelled cath-D were analyzed by SDS-PAGE after immunoprecipitation with M1G8 anti-cath-D antibody (panels a and c). LRP1β expression was monitored in HMF fibroblasts by immunoblotting 48 h post-transfection with either Luc or LRP1 siRNAs (panels b and d). ßactin was used as a loading control. […] LRP1β shedded in the media of HMF fibroblasts after 24 h in the presence of DAPT (1 µM) was detected by immmunoblotting with the monoclonal antibody #3501 directed against the extracellular LRP1 β chain (panel b). […]
(§3) Immunoblotting. […] Equal amounts of protein (100 µg) from cell extracts quantitated by the Bradford assay, or equal volumes (80 µl) of conditioned media, were separated by SDS-PAGE on a 7.5 % gel for anti-LRP1β immunoblotting or on a 12 % gel for anti-cath-D immuno-blotting. […]

LRP1β-CTF [3] = assay: Production of LRP1β carboxyl-terminal fragment in COS cells (immunoprecipitation and immunoblotting); assay type: cell-based; settings: COS cells transfected with Myc-LRP1β, DAPT 1 µM for 24 h; Fig. 5C
Source text: as §1, with “Cells were lysed and the full-length Myc-LRP1β and its carboxy-terminal fragment (LRP1β-CTF) were isolated by immunoprecipitation and visualized by immunoblotting with the monoclonal antibody 11H4. *, p<0.025 versus Luc siRNA HMF cells; **, p<0.0025 versus Luc siRNA HMF cells (Student's t-test).” left out
as §3

HMF fibroblasts = assay: Endocytosis of labelled pro-cath-D in HMF fibroblasts; assay type: cell-based; settings: Homo sapiens, Fibroblast, over 3 h, 10 mM M6P, read-out: inhibition of pro-cath-D internalization
Experimental: as §2

SEAP-LRP1β = assay: LRP1 ectodomain secretion assay (SEAP activity in the medium); assay type: cell-based; settings: cath-D expressing COS cells, pepstatin 100 µM; Fig. 5A panel b
Source text: as §1, with “Cells were lysed and the full-length Myc-LRP1β and its carboxy-terminal fragment (LRP1β-CTF) were isolated by immunoprecipitation and visualized by immunoblotting with the monoclonal antibody 11H4. *, p<0.025 versus Luc siRNA HMF cells; **, p<0.0025 versus Luc siRNA HMF cells (Student's t-test).” left out
LRP1 ectodomain secretion assay. […] SEAP activity was normalized to […] activity measured by hydrolysis of o-nitrophenyl-β-D-galactopyranoside in cells lysed in the reporter lysis buffer (Promega).

Sequence of auto-activated pro-cath-D (P07339 65-412): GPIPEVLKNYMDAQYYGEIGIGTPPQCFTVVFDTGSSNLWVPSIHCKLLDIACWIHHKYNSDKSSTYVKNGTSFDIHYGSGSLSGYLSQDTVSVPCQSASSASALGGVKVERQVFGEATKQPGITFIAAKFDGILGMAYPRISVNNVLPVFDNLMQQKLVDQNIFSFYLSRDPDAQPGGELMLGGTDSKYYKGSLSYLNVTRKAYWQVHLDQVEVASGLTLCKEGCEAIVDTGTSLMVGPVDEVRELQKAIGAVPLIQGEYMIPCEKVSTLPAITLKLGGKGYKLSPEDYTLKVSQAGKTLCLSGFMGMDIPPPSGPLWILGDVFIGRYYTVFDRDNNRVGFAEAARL
T1 sequence (P07339 21-412): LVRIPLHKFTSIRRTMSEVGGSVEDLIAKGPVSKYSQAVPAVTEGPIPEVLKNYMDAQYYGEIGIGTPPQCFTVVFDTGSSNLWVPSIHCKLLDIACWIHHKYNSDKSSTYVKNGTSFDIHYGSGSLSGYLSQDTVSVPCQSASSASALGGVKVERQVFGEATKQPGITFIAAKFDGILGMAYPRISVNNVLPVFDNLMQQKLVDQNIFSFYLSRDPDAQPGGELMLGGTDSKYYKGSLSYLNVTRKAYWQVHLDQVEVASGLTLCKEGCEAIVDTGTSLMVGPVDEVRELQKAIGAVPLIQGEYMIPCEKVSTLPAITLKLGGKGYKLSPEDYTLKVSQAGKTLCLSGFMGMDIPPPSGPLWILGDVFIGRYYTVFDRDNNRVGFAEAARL

competition for the binding of LRP1β (1-476) to GST-pro-cath-D (pro-cath-D): competed efficiently
cleavage sites [1]: 3
Compound: 49-mer: polypeptide sequence of 49 amino acids corresponding to the 349-397 fragment of the extra-cellular LRP1 β chain, SEQ ID NO: 5 (CRCLPGFLGDRCQYRQCSGYCENFGTCQMAADGSRQCRCTAYFEGSRCE)

Compound: C[C@H](NC(=O)Cc1cc(F)cc(F)c1)C(=O)N[C@H](C(=O)OC(C)(C)C)c1ccccc1 [DAPT]
level of membrane bound LRP1β-CTF (LRP1β-CTF [2]): further increase
presence of LRP1β-CTF (LRP1β-CTF [3]): strong increase

Compound: O=C[C@@H](O)[C@@H](O)[C@H](O)[C@H](O)COP(=O)(O)O [M6P, mannose-6-phosphate]
inhibition at 10000 µM (HMF fibroblasts): 82%

Compound: CC(C)CC(=O)N[C@H](C(=O)N[C@H](C(=O)N[C@@H](CC(C)C)[C@@H](O)CC(=O)N[C@@H](C)C(=O)N[C@@H](CC(C)C)[C@@H](O)CC(=O)O)C(C)C)C(C)C [pepstatin A] (Isovaleryl-VV[Sta]A[Sta]-OH)
SEAP-LRP1β ectodomain shedding (SEAP-LRP1β): prevented
